From ChEMBL document CHEMBL1127793 (J Med Chem, 1994) come the findings set out here.

The target of assay [1] is Leukotriene B4 receptor 1 (Mus musculus, UniProt O88855). Description: Tested for antagonistic activity in mouse spleen membrane against LTB4 receptor. It counts as functional, cell membranes.
For a further assay, the species on record is Cavia porcellus. Description: Tested for the inhibitory activity against neutrophil infiltration in response to LTB4 in guinea pig. The format is functional.
A further assay has as its system Mus musculus. Description: Oral administration of compound in 0.5% methyl cellulose inhibits the LTB4-induced response. The format is functional.
Assay [2] is filed under the species Homo sapiens. Description: Tested for inhibitory activity against LTB4 induced up-regulation of CD11b on human neutrophils. It counts as functional.
For assay [3], the target named is T1, Prostaglandin G/H synthase 2 (Ovis aries) (UniProt P79208).
T1 sequence (whole entry): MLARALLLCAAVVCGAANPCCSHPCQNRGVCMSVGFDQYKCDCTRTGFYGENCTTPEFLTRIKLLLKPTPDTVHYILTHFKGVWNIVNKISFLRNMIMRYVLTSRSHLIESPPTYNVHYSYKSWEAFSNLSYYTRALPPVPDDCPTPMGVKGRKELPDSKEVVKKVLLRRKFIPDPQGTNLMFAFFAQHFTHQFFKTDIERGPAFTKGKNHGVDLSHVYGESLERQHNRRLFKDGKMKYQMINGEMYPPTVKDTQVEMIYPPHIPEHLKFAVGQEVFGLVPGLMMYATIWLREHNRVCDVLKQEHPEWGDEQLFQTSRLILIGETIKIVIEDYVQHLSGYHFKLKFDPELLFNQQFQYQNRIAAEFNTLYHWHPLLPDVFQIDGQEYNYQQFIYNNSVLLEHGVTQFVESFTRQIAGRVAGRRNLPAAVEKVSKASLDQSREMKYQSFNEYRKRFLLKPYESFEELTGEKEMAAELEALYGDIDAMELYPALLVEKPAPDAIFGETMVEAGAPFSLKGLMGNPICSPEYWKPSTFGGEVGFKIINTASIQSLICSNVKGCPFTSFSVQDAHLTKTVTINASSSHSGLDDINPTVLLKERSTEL
Description: Tested for inhibition of the Prostaglandin G/H synthase at 10 uM conc.; No inhibition.

Assay [4] is filed under the species Homo sapiens. The experiment in a line: Tested for inhibitory activity against LTB4 induced chemotaxis of human neutrophils. It counts as functional.

Each structure is given as a SMILES string. pIC50: −log10 of the molar value. Calls of active or inactive are those of the source. The calls are words filed in the database; no cut-off is given here.

Sequence of Leukotriene B4 receptor 1 (O88855 whole entry): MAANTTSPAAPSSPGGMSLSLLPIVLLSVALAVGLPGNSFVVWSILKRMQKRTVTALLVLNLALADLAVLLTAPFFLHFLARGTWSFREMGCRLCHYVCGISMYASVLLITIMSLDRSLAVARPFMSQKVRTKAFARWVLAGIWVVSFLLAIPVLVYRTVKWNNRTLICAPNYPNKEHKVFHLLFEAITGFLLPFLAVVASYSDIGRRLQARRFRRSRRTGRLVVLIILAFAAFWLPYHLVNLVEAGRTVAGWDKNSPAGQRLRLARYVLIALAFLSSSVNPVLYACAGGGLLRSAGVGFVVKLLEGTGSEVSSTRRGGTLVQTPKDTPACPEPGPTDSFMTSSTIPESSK

Broadly, the pIC50 is the IC50 on a negative log10 scale, so that one unit is a factor of ten. High values mean a small IC50, low ones a large IC50. In general, ED50 refers to the dose at which the effect has come halfway, by size or by number of responders. Higher therefore signals a need for a large dose. `O=C(O)C1(c2ccc3c(c2)OC[C@H](Cc2ccc(-c4ccccc4)cc2)[C@H]3O)CCCC1`: the pIC50 is 7.52 in assay [1], 6.37 in the assay filed under Homo sapiens [2] and 8.28 in the assay listed under Homo sapiens [4]. Besides, the ED50 in the assay listed under Cavia porcellus was 0.26 mg/kg; in the assay on Mus musculus it was 4.2 mg/kg. Besides, the inhibition result in assay [3] was “inactive”.
